Results on two compounds are retold here after patent US10576092B1, “Doxorubicin derivatives and uses thereof” (S.S.Manufacturing Co. Ltd, priority 2019, dated 2020).

The test system of data set [1] is MCF-7 cells. Nature of the data set: Induction of MCF-7 cell apoptosis. It is filed as cell-based, human.
Data set [2] concerns MCF-7 cells. In words: Cytosolic oxidative stress. In kind it is cell-based, human.
Data set [3] concerns MCF-7 cells. Nature of the data set: Cell cycle analysis. In kind it is cell-based, human.
In data set [4] the test system is MCF-7 cells. Nature of the data set: Fluorescent microscopy of subcellular distribution. It is filed as cell-based, human. To be noted: 120 μg/ml, observed at 60, 120 and 360 minutes. On the procedure: Low numbers of MCF-7 cells were seeded into 8-well plate (3,000 cells/well) overnight.
Data set [5] deals with MCF-7 cells. Nature of the data set: MTT (WST-1) assay for cytotoxicity effect of compound A on tumor cells. To be noted: 24 hours treatment. Background: Tetrazolium assays rely on reduction of a dye to a coloured formazan, in cell work by metabolically active cells.
Description: The human breast cancer cell line, MCF-7, was obtained from American Type Cell Collection (ATCC) (Rockville, Mo., U.S.A.). The cells were cultured to 70-80% confluence in Dulbecco's modified Eagle medium (DMEM) (Gibco, Grand Island, N.Y., U.S.A.) with 10% fetal bovine serum (FBS) (Gibco) at 37° C. and 5% CO2. MCF-7 cells were plated overnight in a 96-well plate (4,000 cells per well). […] Next, 10 μl/well of WST-1/ECS solution from the Quick Cell Proliferation Colorimetric Assay Kit (BioVision, Inc., Milptas, Calif., U.S.A.) was added, and the solution was incubated for 2 hours at 37° C. and 5% CO2. […] The half maximal inhibitory concentrations (IC50s) were calculated from linear regression from the absorbance optical density (OD) of each triplicate concentration.

Description for Lipid solubility in oil: The suspended were vortexed and centrifuged at 3000 RPM, 10 mins periodically. Oil solvent volume was stepwise increased till completely soluble was observed and the soluble concentration were determined (Table1). The solutions were left at 24° C. overnight and were centrifuged at 5000 RPM for 20 mins. […] The suspensions were vigorously vortex and left at room temperature.

Regarding `COc1cccc2c1C(=O)c1c(O)c3c(c(O)c1C2=O)C[C@@](O)(C(=O)CO)C[C@@H]3O[C@H]1C[C@H](N)[C@H](O)[C@H](C)O1` [Doxorubicin], the “Solubility in Oil (40° C.)” value in “Lipid solubility in oil” (Canola Oil), in “Lipid solubility in oil” (Ethiodized Oil) and in the data set “Lipid solubility in oil” (Olive Oil) was “less than 0.0001 mg/100 ml” each time.

“((3bS)-7-hydroxy-11a-methyl-1H,2H,3H,3aH,3bH,4H,5H,9bH,10H,11H,11aH-cyclopenta[a]phenanthren-1-yl N-[(2S,3S,6R)-3-hydroxy-2-methyl-6-{[(1S,3S)-3,5,12-trihydroxy-3-(2-hydroxyacetyl)-10-methoxy-6,11-dioxo-1,2,3,4,6,11-hexahydrotetracen-1-yl]oxy}oxan-4-yl]carbamate) [Compound A]”: the “induction of MCF-7 cell apoptosis” value in the data set with MCF-7 cells [1] is reported as “rapidly induced MCF-7 cell apoptosis”. Further, in the data set on MCF-7 cells [2], the cytosolic oxidative stress entry was “increased cytosolic oxidative stress”. Further, the “interference with the cell cycle” value in the data set with MCF-7 cells [3] was “did not interfere with the cell cycle”. Besides, in the data set with MCF-7 cells [4], the “entry into the nucleus (subcellular distribution)” value is “without entering the nucleus”. In the data set on MCF-7 cells [5], the IC60 was about 120 µg/mL.
